# Test system: MV-4-11 cells
# Experiment: Gene expression microarray analysis (Affymetrix PrimeView) and GSEA
# Assay type: cell-based, human
# Parameters: RFU PODN (11730768_x_at) / Fold change /veh PODN (11730768_x_at) / RFU LINC00158 (11744669_a_at) / Fold change /veh LINC00158 (11744669_a_at) / RFU DUSP10 (11751237_a_at) / Fold change /veh DUSP10 (11751237_a_at) / RFU ID3 (11757404_x_at) / Fold change /veh ID3 (11757404_x_at) / RFU PLEKHG5 (11737974_s_at) / Fold change /veh PLEKHG5 (11737974_s_at) / RFU LRRC4B (11730491_at) / Fold change /veh LRRC4B (11730491_at) / RFU GIMAP4 (11747438_a_at) / Fold change /veh GIMAP4 (11747438_a_at) / RFU KRT8 (11758183_x_at) / Fold change /veh KRT8 (11758183_x_at) / RFU CNN1 (11734310_a_at) / Fold change /veh CNN1 (11734310_a_at) / RFU VPS37D (11726825_at) / Fold change /veh VPS37D (11726825_at) / RFU C10orf10 (11716522_x_at) / Fold change /veh C10orf10 (11716522_x_at) / RFU KIR2DL2 /// KIR2DL4 /// KIR2DL5A /// KIR2DL5B /// KIR2DS1 /// KIR2DS2 /// KIR2DS3 /// KIR2DS4 /// KIR3DL3 /// KIR3DL3 /// KIR3DS1 (11738374_at) / Fold change /veh KIR2DL2 /// KIR2DL4 /// KIR2DL5A /// KIR2DL5B /// KIR2DS1 /// KIR2DS2 /// KIR2DS3 /// KIR2DS4 /// KIR3DL3 /// KIR3DL3 /// KIR3DS1 (11738374_at) / RFU C1QL1 (11718748_at) / Fold change /veh C1QL1 (11718748_at) / RFU TMPRSS4 (11747572_a_at) / Fold change /veh TMPRSS4 (11747572_a_at) / RFU HAMP (11756126_x_at) / Fold change /veh HAMP (11756126_x_at) / RFU RNFT2 (11725882_a_at) / Fold change /veh RNFT2 (11725882_a_at) / RFU NR4A2 (11747474_a_at) / Fold change /veh NR4A2 (11747474_a_at) / RFU ABCC12 (11746883_a_at) / Fold change /veh ABCC12 (11746883_a_at) / RFU TMEM136 (11760407_x_at) / Fold change /veh TMEM136 (11760407_x_at) / RFU CLDN22 /// WWC2 (11732394_at) / Fold change /veh CLDN22 /// WWC2 (11732394_at) / RFU HLA-DPB1 (11760878_x_at) / Fold change /veh HLA-DPB1 (11760878_x_at) / RFU SPINT1 (11716480_a_at) / Fold change /veh SPINT1 (11716480_a_at) / RFU GAP43 (11754022_s_at) / Fold change /veh GAP43 (11754022_s_at) / RFU A4GNT (11735810_at) / Fold change /veh A4GNT (11735810_at) / RFU PRB3 (11715151_x_at) / Fold change /veh PRB3 (11715151_x_at) / RFU TUBB4B (11761932_at) / Fold change /veh TUBB4B (11761932_at) / RFU CAPN14 (11732068_a_at) / Fold change /veh CAPN14 (11732068_a_at) / RFU TMCC2 (11721928_a_at) / Fold change /veh TMCC2 (11721928_a_at) / RFU IRGQ (11745062_a_at) / Fold change /veh IRGQ (11745062_a_at) / RFU FAM174B (11720279_a_at) / Fold change /veh FAM174B (11720279_a_at) / RFU TMPRSS4 (11748680_a_at) / Fold change /veh TMPRSS4 (11748680_a_at) / RFU FAM212B (11763350_a_at) / Fold change /veh FAM212B (11763350_a_at) / RFU PLEKHG5 (11743358_a_at) / Fold change /veh PLEKHG5 (11743358_a_at) / RFU ZSCAN30 (11745921_a_at) / Fold change /veh ZSCAN30 (11745921_a_at) / RFU CMKLR1 (11741424_a_at) / Fold change /veh CMKLR1 (11741424_a_at) / RFU LOC101060620 /// MAPK8IP1 (11723275_at) / Fold change /veh LOC101060620 /// MAPK8IP1 (11723275_at) / RFU SPTSSB (11747773_x_at) / Fold change /veh SPTSSB (11747773_x_at) / RFU PRSS12 (11739890_at) / Fold change /veh PRSS12 (11739890_at) / RFU BIN1 (11741810_x_at) / Fold change /veh BIN1 (11741810_x_at) / RFU WNT11 (11732464_a_at) / Fold change /veh WNT11 (11732464_a_at) / RFU C10orf10 (11716521_a_at) / Fold change /veh C10orf10 (11716521_a_at) / RFU C5orf56 (11738089_at) / Fold change /veh C5orf56 (11738089_at) / RFU CYB561 (11721691_x_at) / Fold change /veh CYB561 (11721691_x_at) / RFU ANKRD19P (11752326_a_at) / Fold change /veh ANKRD19P (11752326_a_at) / RFU OR2T12 /// OR2T33 /// OR2T8 (11738714_s_at) / Fold change /veh OR2T12 /// OR2T33 /// OR2T8 (11738714_s_at) / RFU VCAN (11748164_a_at) / Fold change /veh VCAN (11748164_a_at) / RFU JSRP1 (11732532_at) / Fold change /veh JSRP1 (11732532_at) / RFU KRTAP10-11 (11738290_x_at) / Fold change /veh KRTAP10-11 (11738290_x_at) / RFU MYO3A (11730013_a_at) / Fold change /veh MYO3A (11730013_a_at) / RFU EBF3 (11725865_a_at) / Fold change /veh EBF3 (11725865_a_at) / RFU CAMK2N1 (11719241_x_at) / Fold change /veh CAMK2N1 (11719241_x_at) / RFU C5orf56 (11738088_a_at) / Fold change /veh C5orf56 (11738088_a_at) / RFU OLFML3 (11715873_a_at) / Fold change /veh OLFML3 (11715873_a_at) / RFU LOC100653217 /// NTM (11731650_a_at) / Fold change /veh LOC100653217 /// NTM (11731650_a_at) / RFU MAPK11 (11762145_a_at) / Fold change /veh MAPK11 (11762145_a_at) / RFU FIZ1 (11724087_x_at) / Fold change /veh FIZ1 (11724087_x_at) / RFU OASL (11726364_x_at) / Fold change /veh OASL (11726364_x_at) / RFU SOX15 (11748057_x_at) / Fold change /veh SOX15 (11748057_x_at) / RFU CD79A (11719716_a_at) / Fold change /veh CD79A (11719716_a_at) / RFU HIST1H1D (11736915_at) / Fold change /veh HIST1H1D (11736915_at) / RFU CASKIN2 (11723855_a_at) / Fold change /veh CASKIN2 (11723855_a_at) / RFU LOC730098 (11760151_x_at) / Fold change /veh LOC730098 (11760151_x_at) / RFU OR4N2 (11742367_at) / Fold change /veh OR4N2 (11742367_at) / RFU PRRT2 (11749266_a_at) / Fold change /veh PRRT2 (11749266_a_at) / RFU SNX32 (11753110_a_at) / Fold change /veh SNX32 (11753110_a_at) / RFU CDHR5 (11726645_a_at) / Fold change /veh CDHR5 (11726645_a_at) / RFU RCAN1 (11760418_a_at) / Fold change /veh RCAN1 (11760418_a_at) / RFU FAM167A (11723789_a_at) / Fold change /veh FAM167A (11723789_a_at) / RFU FAM26E (11764081_at) / Fold change /veh FAM26E (11764081_at) / RFU ISYNA1 (11749810_s_at) / Fold change /veh ISYNA1 (11749810_s_at) / RFU ACY1 (11761880_at) / Fold change /veh ACY1 (11761880_at) / RFU 11764098_at / Fold change /veh 11764098_at / RFU SAMD14 (11745864_x_at) / Fold change /veh SAMD14 (11745864_x_at) / RFU NPB (11741838_a_at) / Fold change /veh NPB (11741838_a_at) / RFU TMPRSS6 (11731388_a_at) / Fold change /veh TMPRSS6 (11731388_a_at) / RFU KRTAP10-2 (11738614_at) / Fold change /veh KRTAP10-2 (11738614_at) / RFU ARHGAP8 /// PRR5-ARHGAP8 (11727945_x_at) / Fold change /veh ARHGAP8 /// PRR5-ARHGAP8 (11727945_x_at) / RFU KRTAP5-7 /// NADSYN1 (11734609_at) / Fold change /veh KRTAP5-7 /// NADSYN1 (11734609_at) / RFU RASL12 (11751679_a_at) / Fold change /veh RASL12 (11751679_a_at) / RFU CDKN2B (11736163_a_at) / Fold change /veh CDKN2B (11736163_a_at) / RFU PRF1 (11729649_at) / Fold change /veh PRF1 (11729649_at) / RFU, ZNF638 /// ZNF638-IT1 / Fold change vs veh, ZNF638 /// ZNF638-IT1 / RFU, PANK3 / Fold change vs veh, PANK3 / RFU, SH3YL1 / Fold change vs veh, SH3YL1 / RFU, ZEB2 / Fold change vs veh, ZEB2 / RFU, NRIP1 / Fold change vs veh, NRIP1 / RFU, PTTG1IP / Fold change vs veh, PTTG1IP / RFU, CAPN2 / Fold change vs veh, CAPN2 / RFU, MED14 / Fold change vs veh, MED14 / RFU, SNORA58 / Fold change vs veh, SNORA58 / RFU, C1orf63 / Fold change vs veh, C1orf63 / RFU, LRRFIP1 / Fold change vs veh, LRRFIP1 / RFU, NDUFAF7 / Fold change vs veh, NDUFAF7 / RFU, SLC12A2 / Fold change vs veh, SLC12A2 / RFU, IBTK / Fold change vs veh, IBTK / RFU, ESF1 / Fold change vs veh, ESF1 / Fold change vs veh, TMEM50B / RFU, TAOK1 / Fold change vs veh, TAOK1 / RFU, ACBD3 / Fold change vs veh, ACBD3 / RFU, TMA16 / Fold change vs veh, TMA16 / RFU, RWDD3 / Fold change vs veh, RWDD3 / RFU, BCAT1 / Fold change vs veh, BCAT1 / RFU, EDEM3 / Fold change vs veh, EDEM3 / RFU, TMEM33 / Fold change vs veh, TMEM33 / RFU, WDR75 / Fold change vs veh, WDR75 / RFU, AHCTF1 / Fold change vs veh, AHCTF1 / RFU, TFRC / Fold change vs veh, TFRC / RFU, ZDHHC17 / Fold change vs veh, ZDHHC17 / RFU, NOM1 / Fold change vs veh, NOM1 / RFU, ARL8B / Fold change vs veh, ARL8B / RFU, ZBTB11 / Fold change vs veh, ZBTB11 / RFU, TAMM41 / Fold change vs veh, TAMM41 / RFU, KIAA1704 /// LOC100996395 / Fold change vs veh, KIAA1704 /// LOC100996395 / RFU, ING1 / Fold change vs veh, ING1 / RFU, TRMT61B / Fold change vs veh, TRMT61B / RFU, FUBP3 / Fold change vs veh, FUBP3 / RFU, TP53 / Fold change vs veh, TP53 / RFU, TNKS2 / Fold change vs veh, TNKS2 / RFU, ZFP14 / Fold change vs veh, ZFP14 / RFU, ACTR2 / Fold change vs veh, ACTR2 / RFU, PPP3R1 / Fold change vs veh, PPP3R1 / RFU, PIK3R1 / Fold change vs veh, PIK3R1 / RFU, HNRNPA1 / Fold change vs veh, HNRNPA1 / RFU, RNF170 / Fold change vs veh, RNF170 / RFU, ZNF28 / Fold change vs veh, ZNF28 / RFU, RNGTT / Fold change vs veh, RNGTT / RFU, OGT / Fold change vs veh, OGT / RFU, BRD1 / Fold change vs veh, BRD1 / RFU, MARS / Fold change vs veh, MARS / RFU, ZNF655 / Fold change vs veh, ZNF655 / RFU, FAHD1 / Fold change vs veh, FAHD1 / RFU, BDP1 / Fold change vs veh, BDP1 / RFU, LRRCC1 / Fold change vs veh, LRRCC1 / RFU, ARID1A / Fold change vs veh, ARID1A / RFU, ZNF146 / Fold change vs veh, ZNF146 / RFU, ZNF330 / Fold change vs veh, ZNF330 / RFU, GPN3 / Fold change vs veh, GPN3 / RFU, C9orf123 / Fold change vs veh, C9orf123 / RFU, N4BP2L2 / Fold change vs veh, N4BP2L2 / RFU, ARFIP1 / Fold change vs veh, ARFIP1 / RFU, FAM179B / Fold change vs veh, FAM179B / RFU, BCL10 / Fold change vs veh, BCL10 / RFU, UHRF1BP1L / Fold change vs veh, UHRF1BP1L / RFU, BET1 / Fold change vs veh, BET1 / RFU, CNOT2 / Fold change vs veh, CNOT2 / RFU, ZNF268 / Fold change vs veh, ZNF268 / Fold change vs veh, ZNF507 / RFU, DGCR2 / Fold change vs veh, DGCR2 / RFU, WDSUB1 / Fold change vs veh, WDSUB1 / Fold change vs veh, HSP90B1 /// MIR3652 / RFU, ADSS / Fold change vs veh, ADSS / RFU, GK / Fold change vs veh, GK / RFU, ZNF148 / Fold change vs veh, ZNF148 / RFU, TAF9 / Fold change vs veh, TAF9 / RFU, SLC1A5 / Fold change vs veh, SLC1A5 / RFU, SLMO2 / Fold change vs veh, SLMO2 / RFU, ABCC4 / Fold change vs veh, ABCC4 / RFU, LOC101060439 /// RAP1B / Fold change vs veh, LOC101060439 /// RAP1B / RFU, RFX7 / Fold change vs veh, RFX7 / RFU, GTPBP10 / Fold change vs veh, GTPBP10 / RFU, CNEP1R1 / Fold change vs veh, CNEP1R1 / RFU, BIVM-ERCC5 /// ERCC5 / Fold change vs veh, BIVM-ERCC5 /// ERCC5 / RFU, ILF3 / Fold change vs veh, ILF3 / RFU 11762660_at / Fold change /veh 11762660_at / RFU VCAN (11757783_s_at) / Fold change /veh VCAN (11757783_s_at) / RFU DDX43 (11728927_at) / Fold change /veh DDX43 (11728927_at) / RFU KRT8 (11758188_x_at) / Fold change /veh KRT8 (11758188_x_at) / RFU NKD1 (11759106_at) / Fold change /veh NKD1 (11759106_at) / RFU SRD5A1 (11742802_a_at) / Fold change /veh SRD5A1 (11742802_a_at) / RFU TPSAB1 /// TPSB2 (11721975_s_at) / Fold change /veh TPSAB1 /// TPSB2 (11721975_s_at) / RFU GSTM3 (11746129_a_at) / Fold change /veh GSTM3 (11746129_a_at) / RFU IL23R (11737362_x_at) / Fold change /veh IL23R (11737362_x_at) / RFU TMEM51 (11727254_a_at) / Fold change /veh TMEM51 (11727254_a_at) / RFU PIWIL2 (11732686_x_at) / Fold change /veh PIWIL2 (11732686_x_at) / RFU ORM1 (11744905_x_at) / Fold change /veh ORM1 (11744905_x_at) / RFU CCDC152 (11743942_at) / Fold change /veh CCDC152 (11743942_at) / RFU ECM1 (11717891_a_at) / Fold change /veh ECM1 (11717891_a_at) / RFU IL23R (11748794_a_at) / Fold change /veh IL23R (11748794_a_at) / RFU TNFAIP8L3 (11732012_x_at) / Fold change /veh TNFAIP8L3 (11732012_x_at) / RFU MBOAT4 (11741988_at) / Fold change /veh MBOAT4 (11741988_at) / RFU 11764193_at / Fold change /veh 11764193_at / RFU TMEM53 (11763286_at) / Fold change /veh TMEM53 (11763286_at) / RFU MAGEB2 (11727129_at) / Fold change /veh MAGEB2 (11727129_at) / RFU TMEM200A (11744735_a_at) / Fold change /veh TMEM200A (11744735_a_at) / RFU CCDC152 (11751479_a_at) / Fold change /veh CCDC152 (11751479_a_at) / RFU FAM211A (11726209_a_at) / Fold change /veh FAM211A (11726209_a_at) / RFU RGS16 (11746705_a_at) / Fold change /veh RGS16 (11746705_a_at) / RFU VCAN (11755009_s_at) / Fold change /veh VCAN (11755009_s_at) / RFU RHOB (11743442_s_at) / Fold change /veh RHOB (11743442_s_at) / RFU RGS16 (11720943_a_at) / Fold change /veh RGS16 (11720943_a_at) / RFU RGS16 (11720944_at) / Fold change /veh RGS16 (11720944_at) / RFU, VPS4B / Fold change vs veh, VPS4B / RFU, CREB1 / Fold change vs veh, CREB1 / RFU, DNAJC13 / Fold change vs veh, DNAJC13 / RFU, GNAQ / Fold change vs veh, GNAQ / RFU, CDK5R1 / Fold change vs veh, CDK5R1 / RFU, ZRANB3 / Fold change vs veh, ZRANB3 / RFU, CUL4A / Fold change vs veh, CUL4A / RFU, CCNY / Fold change vs veh, CCNY / RFU, UFL1 / Fold change vs veh, UFL1 / RFU, COG3 / Fold change vs veh, COG3 / RFU, DIAPH2 / Fold change vs veh, DIAPH2 / RFU, SKA2 / Fold change vs veh, SKA2 / RFU, AFF3 / Fold change vs veh, AFF3 / RFU, LMF1 / Fold change vs veh, LMF1 / RFU, IPO11 / Fold change vs veh, IPO11 / RFU, DFFB / Fold change vs veh, DFFB / RFU, FOXP1 / Fold change vs veh, FOXP1 / RFU, CARD8 / Fold change vs veh, CARD8 / RFU, STRN3 / Fold change vs veh, STRN3 / RFU, ADK / Fold change vs veh, ADK / RFU, RASSF2 / Fold change vs veh, RASSF2 / RFU, WIPF1 / Fold change vs veh, WIPF1 / RFU, LARP1B / Fold change vs veh, LARP1B / RFU, RASA1 / Fold change vs veh, RASA1 / RFU, RB1 / Fold change vs veh, RB1 / RFU, PPFIA1 / Fold change vs veh, PPFIA1 / RFU, MAT2A / Fold change vs veh, MAT2A / RFU, CCT5 / Fold change vs veh, CCT5 / RFU, WDR92 / Fold change vs veh, WDR92 / RFU, CUX1 / Fold change vs veh, CUX1 / RFU, TTC7A / Fold change vs veh, TTC7A / RFU, TMEM135 / Fold change vs veh, TMEM135 / RFU, DEPTOR / Fold change vs veh, DEPTOR / RFU, CPM / Fold change vs veh, CPM / RFU, DNAJB6 / Fold change vs veh, DNAJB6 / RFU, CACNA2D3 / Fold change vs veh, CACNA2D3 / RFU, DTX4 / Fold change vs veh, DTX4 / RFU, TFCP2 / Fold change vs veh, TFCP2 / RFU, GMCL1 /// GMCL1P1 / Fold change vs veh, GMCL1 /// GMCL1P1 / RFU, AEBP2 / Fold change vs veh, AEBP2 / RFU, SNHG1 /// SNORD22 /// SNORD25 /// SNORD26 /// SNORD27 /// SNORD28 /// SNORD29 /// SNORD31 / Fold change vs veh, SNHG1 /// SNORD22 /// SNORD25 /// SNORD26 /// SNORD27 /// SNORD28 /// SNORD29 /// SNORD31 / Fold change (Aza/veh), C12orf56 (ProbeSet 11735607_a_at) / Fold change (ACY-1035/veh), C12orf56 (ProbeSet 11735607_a_at) / Fold change (Aza/veh), FGFR1OP (ProbeSet 11751329_s_at) / Fold change (ACY-1035/veh), FGFR1OP (ProbeSet 11751329_s_at) / Fold change (Aza/veh), VPS36 (ProbeSet 11739960_a_at) / Fold change (ACY-1035/veh), VPS36 (ProbeSet 11739960_a_at) / RFU SYPL1 (11715823_x_at) / Fold change /veh SYPL1 (11715823_x_at) / RFU IGFBP7 (11715501_s_at) / Fold change /veh IGFBP7 (11715501_s_at) / RFU REEP3 (11722064_at) / Fold change /veh REEP3 (11722064_at) / RFU IGLL1 (11728026_x_at) / Fold change /veh IGLL1 (11728026_x_at): dose or concentration left out as unconfirmed
# Conditions: ProbeSet 11728676_at; LIST B
structure (smiles),measurement,value
Nc1ncn([C@@H]2O[C@H](CO)[C@@H](O)[C@H]2O)c(=O)n1 [azacitidine],"Fold change vs veh, MED14",0.97

# From article PMC5218480 (PLoS ONE, 2017)
